# Laboratory results as given in US20040235070A1, “Immune reactivity to expressed activated oncogenes for diagnosis and treatment of malignancy” (Washington Research Foundation, priority 1990, published 2004).
# Experiments:
# [1] = tested on: bcr3-abl2 peptide-specific CD4^+ T cell clones; experiment: Proliferative assay of bcr3-abl2 peptide-specific CD4+ T cell clones ([3H] thymidine incorporation); format: cell-based, BALB/c mice; details: for [^3H] Thymidine Incorporation (c.p.m.) after Stimulation / [^3H] Thymidine Incorporation (c.p.m.): 96-hour culture; for [^3H] Thymidine Incorporation (c.p.m.): Table 2; for [^3H] Thymidine Incorporation (c.p.m.) after Stimulation with bcr3-abl2 peptide (5 μg/ml): peptides of varying lengths 5 μg/ml, 96 hour culture, Table 4
# Description: (§1) Mice (female BALB/c and C57BL/6 (B6), 6 to 8 weeks old; Jackson Laboratories, Bar Harbor, Me.) were inoculated twice at 2-week intervals by subcutaneous injection with Complete Freund's Adjuvant (Sigma Chemical Co., St. Louis, Mo.) alone or emulsified with bcr3-abl2 peptide (100 μg). Ten days after the final immunization, single cell suspensions of draining lymph nodes and spleens were prepared in medium consisting of 1:1 mixture of RPMI 1640 (Gibco Laboratories, Inc., Grand Island, N.Y.) and EHAA (Biofluids, Inc., Rockville, Md.) with 2.5×10^−5 M 2-ME, 200 U/ml penicillin, 200 U/ml streptomycin, 10 mM L-glutamine and 10% fetal calf serum. For proliferative assays, lymphocytes were cultured in 96-well plates at 2×10^5 cells per well with 4×10^5 irradiated syngeneic spleen cells (3,000 rad) and designated (total volume of 200 μl per well). Plates were incubated in a humidified atmosphere under 5% CO2 tension at 37° C. for 72 hours, and then pulsed for 18 hours with […] of [^3H]-thumidine per well. Proliferative responses of cloned T cells utilized 2×10^4 cells per well with 5×10^5 irradiated syngeneic spleen cells (3,000 rad) and designated peptide.
# Lymphocytes from the draining lymph nodes of mice immunized with bcr3-abl2 peptide were cultured in 24-well culture plates at 4×10^6 cells per well with 2×10^6 irradiated syngeneic spleen cells and bcr3-abl2 peptide at 25 μg/ml (total volume 2 ml). The plates were cultured in a humidified atmosphere under 5% CO2 tension at 37° C. for 5 days then split 1:2. After 10 days, lymphocytes were restimulated at 1×10^6 lymphocytes per well in 24-well culture plates with 5×10^6 irradiated syngeneic spleen cells and peptide (25 μg/ml). Two days after the second in vitro stimulation, T cells were-plated at 0.5 cells per well in 96-well flat-bottom plates with 1×10^6 irradiated syngeneic spleen cells and rIL-2 (50 U/ml). Derived T cell clones were maintained by periodic stimulation with peptide (1 μg/ml) plus irradiated syngeneic spleen cells followed by expansion with rIL-2 (10 U/ml) every 2 weeks. T cell clones were stained with FITC-conjugated anti-Thy 1.2 (1%), or FITC-conjugated anti-Lyt2 (2%), or PE-conjugated anti-L3T4 (3%) mAbs (Becton Dickinson Immunocytochemistry Systems, Mountain View, Calif.) at 4° C. for 45 minutes.
# [2] = tested on: lymph node and splenic lymphocytes from immunized mice; experiment: Proliferation of lymph node and spleen lymphocytes from mice immunized with bcr3-abl2 peptide; format: cell-based; details: BALB/c mice immunized with bcr3-abl2 12 mer peptide
# Description: Ten days following immunization with peptide, draining lymph node cells (Panel A) and spleen cells (Panel B) were cultured alone or with bcr3-abl2 12 mer peptide, or bcr2-abl2 12 mer peptide, or ras-c12 12 mer peptide at 25 μg/ml, and assayed after 96 hours for proliferation by [^3H] thymidine uptake. The data represent the mean of triplicate determinations of the c.p.m.+S.D.
# as §1, with “Proliferative responses of cloned T cells utilized 2×10^4 cells per well with 5×10^5 irradiated syngeneic spleen cells (3,000 rad) and designated peptide.” left out
sequence,measurement,setting,value
"G F K Q S S K A L Q R P (GFKQSSKALQRP) [bcr3-abl2 12 mer peptide, 12 amino acid peptide identical to the joining region of p210 bcr-abl (bcr exon 3 fused to c-abl exon 2)]",[^3H] Thymidine Incorporation (c.p.m.) after Stimulation,"[1]; T cell clone 1D2, peptide 0.04 μg/ml","16,423 c.p.m."
same,[^3H] Thymidine Incorporation (c.p.m.) after Stimulation,"[1]; T cell clone 1D2, peptide 0.2 μg/ml","91,251 c.p.m."
same,[^3H] Thymidine Incorporation (c.p.m.) after Stimulation,"[1]; T cell clone 1D2, peptide 1 μg/ml","183,229 c.p.m."
same,[^3H] Thymidine Incorporation (c.p.m.),"[1]; T cell clone 1D2, peptide 5 μg/ml","274,701 c.p.m."
same,[^3H] Thymidine Incorporation (c.p.m.) after Stimulation,"[1]; T cell clone 1D2, peptide 5 μg/ml, Table 3","259,018 c.p.m."
same,[^3H] Thymidine Incorporation (c.p.m.) after Stimulation,"[1]; T cell clone 1D2, peptide 25 μg/ml","66,329 c.p.m."
same,[^3H] Thymidine Incorporation (c.p.m.) after Stimulation with bcr3-abl2 peptide (5 μg/ml),[1]; T cell clone 1D2,"120,049 c.p.m."
same,[^3H] Thymidine Incorporation (c.p.m.) after Stimulation,"[1]; T cell clone 2B12, peptide 0.04 μg/ml","4,132 c.p.m."
same,[^3H] Thymidine Incorporation (c.p.m.) after Stimulation,"[1]; T cell clone 2B12, peptide 0.2 μg/ml","71,651 c.p.m."
same,[^3H] Thymidine Incorporation (c.p.m.) after Stimulation,"[1]; T cell clone 2B12, peptide 1 μg/ml","213,089 c.p.m."
same,[^3H] Thymidine Incorporation (c.p.m.),"[1]; T cell clone 2B12, peptide 5 μg/ml","109,319 c.p.m."
same,[^3H] Thymidine Incorporation (c.p.m.) after Stimulation,"[1]; T cell clone 2B12, peptide 5 μg/ml, Table 3","229,010 c.p.m."
same,[^3H] Thymidine Incorporation (c.p.m.) after Stimulation,"[1]; T cell clone 2B12, peptide 25 μg/ml","132,620 c.p.m."
same,[^3H] Thymidine Incorporation (c.p.m.) after Stimulation,"[1]; T cell clone 2D4, peptide 0.04 μg/ml","12,599 c.p.m."
same,[^3H] Thymidine Incorporation (c.p.m.) after Stimulation,"[1]; T cell clone 2D4, peptide 0.2 μg/ml","150,711 c.p.m."
same,[^3H] Thymidine Incorporation (c.p.m.) after Stimulation,"[1]; T cell clone 2D4, peptide 1 μg/ml","256,606 c.p.m."
same,[^3H] Thymidine Incorporation (c.p.m.),"[1]; T cell clone 2D4, peptide 5 μg/ml","262,799 c.p.m."
same,[^3H] Thymidine Incorporation (c.p.m.) after Stimulation,"[1]; T cell clone 2D4, peptide 5 μg/ml, Table 3","182,266 c.p.m."
same,[^3H] Thymidine Incorporation (c.p.m.) after Stimulation,"[1]; T cell clone 2D4, peptide 25 μg/ml","42,623 c.p.m."
same,[^3H] Thymidine Incorporation (c.p.m.) after Stimulation,"[1]; T cell clone 2E3, peptide 0.04 μg/ml","1,475 c.p.m."
same,[^3H] Thymidine Incorporation (c.p.m.) after Stimulation,"[1]; T cell clone 2E3, peptide 0.2 μg/ml","93,921 c.p.m."
same,[^3H] Thymidine Incorporation (c.p.m.) after Stimulation,"[1]; T cell clone 2E3, peptide 1 μg/ml","273,273 c.p.m."
same,[^3H] Thymidine Incorporation (c.p.m.),"[1]; T cell clone 2E3, peptide 5 μg/ml","293,219 c.p.m."
same,[^3H] Thymidine Incorporation (c.p.m.) after Stimulation,"[1]; T cell clone 2E3, peptide 5 μg/ml, Table 3","407,729 c.p.m."
same,[^3H] Thymidine Incorporation (c.p.m.) after Stimulation,"[1]; T cell clone 2E3, peptide 25 μg/ml","358,253 c.p.m."
same,[^3H] Thymidine Incorporation (c.p.m.) after Stimulation,"[1]; T cell clone 2E10, peptide 0.04 μg/ml","26,195 c.p.m."
same,[^3H] Thymidine Incorporation (c.p.m.) after Stimulation,"[1]; T cell clone 2E10, peptide 0.2 μg/ml","235,103 c.p.m."
same,[^3H] Thymidine Incorporation (c.p.m.) after Stimulation,"[1]; T cell clone 2E10, peptide 1 μg/ml","333,056 c.p.m."
same,[^3H] Thymidine Incorporation (c.p.m.),"[1]; T cell clone 2E10, peptide 5 μg/ml","242,633 c.p.m."
same,[^3H] Thymidine Incorporation (c.p.m.) after Stimulation,"[1]; T cell clone 2E10, peptide 5 μg/ml, Table 3","312,783 c.p.m."
same,[^3H] Thymidine Incorporation (c.p.m.) after Stimulation,"[1]; T cell clone 2E10, peptide 25 μg/ml","131,643 c.p.m."
same,[^3H] Thymidine Incorporation (c.p.m.) after Stimulation with bcr3-abl2 peptide (5 μg/ml),[1]; T cell clone 2E10,"96,525 c.p.m."
same,[^3H] Thymidine Incorporation (c.p.m.) after Stimulation,"[1]; T cell clone 3B7, peptide 0.04 μg/ml","60,957 c.p.m."
same,[^3H] Thymidine Incorporation (c.p.m.) after Stimulation,"[1]; T cell clone 3B7, peptide 0.2 μg/ml","56,967 c.p.m."
same,[^3H] Thymidine Incorporation (c.p.m.) after Stimulation,"[1]; T cell clone 3B7, peptide 1 μg/ml","111,212 c.p.m."
same,[^3H] Thymidine Incorporation (c.p.m.),"[1]; T cell clone 3B7, peptide 5 μg/ml","64,935 c.p.m."
same,[^3H] Thymidine Incorporation (c.p.m.) after Stimulation,"[1]; T cell clone 3B7, peptide 5 μg/ml, Table 3","149,640 c.p.m."
same,[^3H] Thymidine Incorporation (c.p.m.) after Stimulation,"[1]; T cell clone 3B7, peptide 25 μg/ml","53,441 c.p.m."
same,[^3H] Thymidine Incorporation (c.p.m.) after Stimulation,"[1]; T cell clone 3E11, peptide 0.04 μg/ml","91,240 c.p.m."
same,[^3H] Thymidine Incorporation (c.p.m.) after Stimulation,"[1]; T cell clone 3E11, peptide 0.2 μg/ml","135,985 c.p.m."
same,[^3H] Thymidine Incorporation (c.p.m.) after Stimulation,"[1]; T cell clone 3E11, peptide 1 μg/ml","189,843 c.p.m."
same,[^3H] Thymidine Incorporation (c.p.m.),"[1]; T cell clone 3E11, peptide 5 μg/ml","263,425 c.p.m."
same,[^3H] Thymidine Incorporation (c.p.m.) after Stimulation,"[1]; T cell clone 3E11, peptide 5 μg/ml, Table 3","130,633 c.p.m."
same,[^3H] Thymidine Incorporation (c.p.m.) after Stimulation,"[1]; T cell clone 3E11, peptide 25 μg/ml","40,755 c.p.m."
same,[^3H] Thymidine Incorporation (c.p.m.) after Stimulation,"[1]; T cell clone 3G2, peptide 0.04 μg/ml","9,440 c.p.m."
same,[^3H] Thymidine Incorporation (c.p.m.) after Stimulation,"[1]; T cell clone 3G2, peptide 0.2 μg/ml","49,602 c.p.m."
same,[^3H] Thymidine Incorporation (c.p.m.) after Stimulation,"[1]; T cell clone 3G2, peptide 1 μg/ml","150,799 c.p.m."
same,[^3H] Thymidine Incorporation (c.p.m.),"[1]; T cell clone 3G2, peptide 5 μg/ml","30,846 c.p.m."
same,[^3H] Thymidine Incorporation (c.p.m.) after Stimulation,"[1]; T cell clone 3G2, peptide 5 μg/ml, Table 3","168,387 c.p.m."
same,[^3H] Thymidine Incorporation (c.p.m.) after Stimulation,"[1]; T cell clone 3G2, peptide 25 μg/ml","132,024 c.p.m."
same,[^3H] Thymidine Incorporation (c.p.m.) after Stimulation,"[1]; T cell clone 3G3, peptide 0.04 μg/ml","11,510 c.p.m."
same,[^3H] Thymidine Incorporation (c.p.m.) after Stimulation,"[1]; T cell clone 3G3, peptide 0.2 μg/ml","18,403 c.p.m."
same,[^3H] Thymidine Incorporation (c.p.m.) after Stimulation,"[1]; T cell clone 3G3, peptide 1 μg/ml","93,219 c.p.m."
same,[^3H] Thymidine Incorporation (c.p.m.),"[1]; T cell clone 3G3, peptide 5 μg/ml","61,521 c.p.m."
same,[^3H] Thymidine Incorporation (c.p.m.) after Stimulation,"[1]; T cell clone 3G3, peptide 5 μg/ml, Table 3","143,670 c.p.m."
same,[^3H] Thymidine Incorporation (c.p.m.) after Stimulation,"[1]; T cell clone 3G3, peptide 25 μg/ml","101,280 c.p.m."
same,response of bcr3-abl2 peptide-specific T cell clones (in words),[1]; proliferative assay with irradiated syngeneic APC,responded specifically
same,lowest concentration to which clones responded vigorously,"[1]; some clones, lowest concentration tested",0.04 µg/mL
same,proliferation in vitro of lymph node and splenic lymphocytes,[2],proliferated in vitro
